For assay [1], the system named is LLO haemolytic activity of L. monocytogenes EGDe. As to the kind of experiment: LLO haemolytic activity testing of culture supernatants. As to conditions: sheep red blood cells. The class given is cell-based, Listeria monocytogenes EGDe. As for the experimental part: Overnight cultures of L. monocytogenes EGDe were harvested by centrifugation and resuspended in an equal volume of fresh BHB medium. In 1.5 mL Eppendorf tubes, 400 μL of BHB medium were inoculated with 4 μL of the resuspended Listeria culture and 4 μL of a corresponding beta-lactone stock in DMSO. The final concentrations were 800 μM, 400 μM, 200 μM, 100 μM and DMSO as control. The amount of DMSO in all tests was 1% of the medium. After mixing, the test tubes were incubated under continuous shaking at 200 rpm at 37° C. for 16 h. Then, cells were centrifuged and the supernatants filtered sterile by passing them through a 0.2 μm pore size filter. Haemolytic activity of LLO in the culture supernatants was quantitatively investigated according to a method described in J. Food Safety 1998, 18: 197-203 (incorporated herein by reference) with some modifications. In Nunclon™ 96-well plates with round shaped wells 100 μL of serial dilutions of the supernatants in PBS were added per well and incubated with 100 μL of 3% SRBC (sheep red blood cells) resuspended in PBS for 15 min at 37° C. under gentle shaking. The 96-well plates were centrifuged at 600 rpm for 5 min and the minimum dilution at which intact blood cells began to form a pellet was recorded. Controls with no lactone were set 100%. Buffer only controls and pure BHB medium yielded no haemolysis.

Assay [2] deals with β-Ketoacyl acyl carrier protein synthase II (KAS II). As to the kind of experiment: ABPP labeling of bacterial proteomes, KAS II. In kind it is binding, L. welshimeri, B. subtilis. The note with it: 50 μM probe, FIGS. 9A and 9B. The text has this: The library of beta-lactones to be tested comprised compounds with aliphatic or aromatic substitutions varying in length and branching. To evaluate the target selectivity, the beta-lactones were screened against several gram-positive and gram-negative bacterial proteomes including Pseudomonas putida, Listeria welshimeri, Bacillus licheniformis, Bacillus subtilis and Escherichia coli, which are phylogenetically related to pathogenic strains. In addition, mouse liver cytosol was included as an eukaryotic reference proteome. Initial labeling experiments were carried out by adding individual probes at 50 μM concentration to the proteome which is sufficient to achieve full saturation of most targets. […] As an example, labeling of L. welshimeri cytosolic and membrane proteomes as well as B. subtilis cytosolic proteome with a subset of the most complementary probes is shown in FIGS. 9A and 9B. […] Most of the targeted proteins were of low abundance as shown by the direct comparison of the relative intensities observed with Coomassie staining vs. fluorescence scanning (FIG. 11).
Proteome samples were adjusted to a final concentration of 1 mg protein/mL by dilution in PBS prior to probe labeling. […]

The subject of assay [3] is extracellular DNase of S. aureus. As to the kind of experiment: DNase assay using DNA containing agar plates. The class given is cell-based, Staphylococcus aureus. As to conditions: 250 nmol. The text has this: FIG. 4: Agar plate-based virulence assays.
A dose down in FIG. 5 indicates the different potencies of structurally diverse ClpP inhibitors for E2, G2 and D3. […] Extracellular DNase also is part of the S. aureus virulence factors. Its purpose is to destroy the hosts DNA and provide a nutritional source for S. aureus.

The target in another assay is T1, ClpP (Listeria monocytogenes serovar 1/2a, UniProt Q9RQI6).
T1 construct: endogenous in cells; host or cells: living Listeria monocytogenes EGDe, stationary phase
T1 sequence (Q9RQI6 whole entry): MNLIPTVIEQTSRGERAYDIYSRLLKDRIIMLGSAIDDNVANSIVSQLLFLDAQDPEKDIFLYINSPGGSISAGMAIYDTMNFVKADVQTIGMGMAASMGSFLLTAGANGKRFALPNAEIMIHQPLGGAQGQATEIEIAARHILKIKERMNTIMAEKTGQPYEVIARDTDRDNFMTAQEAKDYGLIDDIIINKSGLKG
As to the kind of experiment: In vivo labeling of Listeria proteomes. In kind it is cell-based. As to conditions: living L. monocytogenes EGDe, cytosol, 2 h incubation. On the procedure:
For analytical and preparative in vivo studies, Listeria were grown to stationary phase and harvested by centrifugation at 4,000 rpm 1 h after entrance in the stationary phase (1.5 ml for analytical and 15 ml for preparative studies). The cell pellets were washed once with PBS and resuspended in 100 μL and 500 μL PBS for analytical and preparative studies, respectively. The cell suspensions were incubated for 2 h with varying concentrations of probe at room temperature. Probes were applied from DMSO stocks whereby DMSO never exceeded 2% in the final solution. For preparative experiments, 50 μM of the probes was added to the cells resuspended in PBS. After incubation, the cells were washed thoroughly three times with PBS to remove excess probe from the supernatant. Subsequently the cells were lysed in 100 μL (500 μL) PBS by sonication with a Bandelin Sonopuls with 3×20 sec. pulsed at 70% max. power. For analytical experiments 44 μL proteome were used to append a reporter tag via CC, such that once CC reagents were added, the total reaction volume was 50 μL. In preparative purposes the total volume of 500 μL it was consumed per experiment. Reporter tagged-azide reagents (13 μM rhodamine-azide for analytical or 20 μM rhodamine-biotin-azide for preparative scale) were added followed by 1 mM TCEP and 100 μM ligand. Samples were gently vortexed and the cycloaddition initiated by the addition of 1 mM CuSO4. The reactions were incubated at room temperature for 1 h. For analytical gel electrophoresis, 50 μL 2×SDS loading buffer were added and 50 μL applied on the gel. Fluorescence was recorded in a Fujifilm Las-3000 Fluoreszenz Darkbox with a Fujinon VRF 43LMD Lens, 605DF40 filter and 520 nm EPI excitation wavelength.

The structures appear in SMILES notation.

For `C#CCCCC1OC(=O)C1CCCCCCCC=C` (stereo not drawn) [D3, trans-3-(8-nonen-1-yl)-4-(4-pentyn-1-yl)oxetan-2-one], the EC50 (commonly the concentration at which the effect is half-maximal) in assay [1] (Listeria monocytogenes, Erythrocyte, cultures grown 16 h with lactone, read-out: EC50 of reduction of LLO haemolytic activity) is 100 µM. Besides, in assay [1] (cultures grown 16 h with 100-800 μM lactone), the “reduction (inhibition) of haemolytic activity” value stood at 80%. For the same molecule, the “KAS II labeling” value in assay [2] is recorded as “labeled”. The “amount of extracellular DNase” value in assay [3] is “effect”. Further, the “ClpP labeling (probe potency ranking)” value at ClpP was “most potent probes”.
